Data taken from patent US9771335B2 (THE JOHNS HOPKINS UNIVERSITY, priority 2015, dated 2017).
“Also recorded” adds a separate entry of the source.

Tests used:
hNav1.1 = target: T1, hNav1.1 (Homo sapiens, UniProt P35498); experiment: Two-electrode voltage-clamp recording from Xenopus oocytes expressing hNav1.1 with β1; format: cell-based; conditions: for effect on hNav1.1 opening / gating (in words): G/Gmax vs DMSO control; for effect on hNav1.1 persistent current (in words): end of a 50 ms test pulse; for depolarizing shift in hNav1.1 channel activation voltage: vs DMSO control; for hNav1.1 Inactivation (V1/2), steady-state inactivation / hNav1.1 Activation (V1/2): 100 μM drug, Xenopus oocytes, DMSO 1% or less; for hNav1.1 Activation (V1/2): at least one hour incubation, ** = p<0.005 vs DMSO
T1 construct: host or cells: Xenopus oocytes (cRNA injection)

hNav1.2 = target: T2, hNav1.2 (Homo sapiens, UniProt Q99250); experiment: Two-electrode voltage-clamp recording from Xenopus oocytes expressing hNav1.2 with β1; format: cell-based; conditions: for effect on hNav1.2 opening / tested gating parameters (in words): 100 μM, vs DMSO control; for hNav1.2 Activation (V1/2) / hNav1.2 Inactivation (V1/2), steady-state inactivation: 100 μM drug, Xenopus oocytes, DMSO 1% or less
T2 construct: host or cells: Xenopus oocytes (cRNA injection)

hNav1.3 = target: T3, hNav1.3 (Homo sapiens, UniProt Q9NY46); experiment: Two-electrode voltage-clamp recording from Xenopus oocytes expressing hNav1.3 with β1; format: cell-based; conditions: for effect on hNav1.3 opening / tested gating parameters (in words): 100 μM, vs DMSO control; for hNav1.3 Activation (V1/2) / hNav1.3 Inactivation (V1/2), steady-state inactivation: 100 μM drug, Xenopus oocytes, DMSO 1% or less
T3 construct: host or cells: Xenopus oocytes (cRNA injection)

hNav1.6 = target: T4, hNav1.6 (Homo sapiens, UniProt Q9UQD0); experiment: Two-electrode voltage-clamp recording from Xenopus oocytes expressing hNav1.6 with β1; format: cell-based; conditions: for hNav1.6 Activation (V1/2) / hNav1.6 Inactivation (V1/2), steady-state inactivation: 100 μM drug, Xenopus oocytes, DMSO 1% or less
T4 construct: host or cells: Xenopus oocytes (cRNA injection)

[1] = test system: 6 Hz (17 mA) induced partial seizures in male Cr1:CF1 mice; experiment: 6 Hz psychomotor seizure induction; format: in vivo; conditions: 75 mg/kg ip, p<0.0001
Experimental: (§1) Animal husbandry and drug administration. Male Cr1:CF1 mice (10-12 weeks old, Charles River) were housed under a 12 hour light-dark cycle with free access to food and water and all experiments were carried out between 10 am and 4 pm. 1-[phenyl-methyl]-1H-1,2,3-triazole-4-carboxamide-5-methyl (Compound B) (Sigma Aldrich) was suspended in a 40% solution of cyclodextrin (Sigma Aldrich) in sterile saline (0.9%) and 15 minutes prior to each seizure induction paradigm, 75 mg/kg of compound B was administered via intraperitoneal injection (ip) injection. Vehicle treated animals were similarly administrated 40% cyclodextrin and served as the controls for each experiment. The Emory University Institutional Animal Care and Use Committee approved all experimental protocols involving mice.
6 Hz psychomotor seizure induction. Topical anesthetic (0.5% tetracaine hydrochloride ophthalmic solution) was applied to the cornea 30 minutes before testing. Fifteen minutes prior to seizure induction, mice were administrated vehicle or compound B (n=12 per group). Each mouse was manually restrained and corneal stimulation (0.2 ms pulse, 6 Hz, 3s) was performed at a current intensity of 17 mA (ECT Unit 57800; Ugo Basile, Comerio Italy). […]

[2] = test system: flurothyl-induced generalized seizures in male Cr1:CF1 mice; experiment: Flurothyl seizure induction; format: in vivo; conditions: 75 mg/kg ip, vs vehicle, p=0.6
Experimental: as §1
Flurothyl Seizure induction. Latencies to flurothyl-induced seizures were determined as previously described (Neurobiol Dis 49C, 211-220 (2012)). Briefly, flurothyl (2,2,2-trifluroethylether; Sigma Aldrich) was dispensed at a rate of 20 μl/minute into a Plexiglas chamber and latencies to three behavioral phenotypes were compared between vehicle-treated and compound B-treated (75 mg/kg) mice (n=12 per group): 1) the first myoclonic jerk, 2) a generalized tonic-clonic seizure, and 3) a generalized tonic-clonic seizure with tonic extension. […]

α1/β2/γ2 GABAA receptor = target: T5, α1/β2/γ2 GABAA receptor (Homo sapiens, UniProt P14867+P18507+P47870); experiment: GABAA receptor activation in oocytes held at −70 mV; format: cell-based; conditions: 100 μM; 5 μM muscimol as activator control
T5 construct: expressed in transfected cells; host or cells: oocytes (heterologous expression inferred)
Excerpt: Oocytes were kept at −70 mV throughout the experiment.

[3] = test system: picrotoxin-induced generalized seizures in male Cr1:CF1 mice; experiment: Picrotoxin seizure induction; format: in vivo
Experimental: as §1
Seizure induction paradigms and analyses. Picrotoxin seizure induction—15 minutes prior to i.p. injection of picrotoxin (10 mg/kg, Sigma Aldrich), mice were administered vehicle or compound B (n=12 per group). Latencies to the first myoclonic jerk, forelimb clonus, and generalized tonic-clonic seizure were compared between compound B and vehicle-treated mice. The myoclonic jerk is characterized by a sudden jerk of the upper body whereas forelimb clonus involves rapid movement of the forelimbs for at least 5s. Finally, the generalized tonic-clonic seizure involves the loss of postural control with rapid movement of the limbs for at least 5s.
Statistical analysis. A Student's t-test was used to identify statistically significant differences in latencies between vehicle- and compound B-treated groups for each seizure phenotype following administration of flurothyl and picrotoxin. […] All data are presented as the mean±s.e.m.; p values <0.05 were considered significant.

Solubility of rufinamide = format: physicochemical
[4] = 75 mg/kg ip 15 minutes prior to picrotoxin 10 mg/kg, vs vehicle

T5 sequence (P14867 28-456): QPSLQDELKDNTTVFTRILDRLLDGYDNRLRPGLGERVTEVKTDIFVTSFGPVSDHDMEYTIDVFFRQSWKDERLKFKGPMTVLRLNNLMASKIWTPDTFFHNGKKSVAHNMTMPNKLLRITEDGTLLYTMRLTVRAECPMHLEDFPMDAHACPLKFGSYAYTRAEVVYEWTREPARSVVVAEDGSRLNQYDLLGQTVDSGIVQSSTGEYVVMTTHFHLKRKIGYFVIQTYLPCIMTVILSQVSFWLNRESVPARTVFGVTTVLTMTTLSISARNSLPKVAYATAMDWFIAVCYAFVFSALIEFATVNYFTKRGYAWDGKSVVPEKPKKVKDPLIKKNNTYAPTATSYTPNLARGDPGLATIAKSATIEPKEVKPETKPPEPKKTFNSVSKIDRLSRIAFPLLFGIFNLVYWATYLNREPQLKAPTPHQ
T5 sequence (P47870 25-512 limits assumed): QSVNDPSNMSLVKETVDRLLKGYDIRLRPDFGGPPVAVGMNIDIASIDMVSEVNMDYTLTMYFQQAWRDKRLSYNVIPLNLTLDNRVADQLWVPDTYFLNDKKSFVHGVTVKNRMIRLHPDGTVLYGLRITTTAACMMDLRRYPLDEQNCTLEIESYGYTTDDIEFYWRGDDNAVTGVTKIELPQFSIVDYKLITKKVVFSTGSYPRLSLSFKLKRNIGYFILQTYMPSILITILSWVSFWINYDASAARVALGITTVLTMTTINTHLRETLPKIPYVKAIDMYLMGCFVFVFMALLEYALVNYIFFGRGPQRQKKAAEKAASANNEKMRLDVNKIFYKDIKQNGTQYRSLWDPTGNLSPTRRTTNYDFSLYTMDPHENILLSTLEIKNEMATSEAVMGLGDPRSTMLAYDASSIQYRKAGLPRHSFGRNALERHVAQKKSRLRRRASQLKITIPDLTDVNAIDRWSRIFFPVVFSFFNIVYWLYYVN
T5 sequence (P18507 40-475): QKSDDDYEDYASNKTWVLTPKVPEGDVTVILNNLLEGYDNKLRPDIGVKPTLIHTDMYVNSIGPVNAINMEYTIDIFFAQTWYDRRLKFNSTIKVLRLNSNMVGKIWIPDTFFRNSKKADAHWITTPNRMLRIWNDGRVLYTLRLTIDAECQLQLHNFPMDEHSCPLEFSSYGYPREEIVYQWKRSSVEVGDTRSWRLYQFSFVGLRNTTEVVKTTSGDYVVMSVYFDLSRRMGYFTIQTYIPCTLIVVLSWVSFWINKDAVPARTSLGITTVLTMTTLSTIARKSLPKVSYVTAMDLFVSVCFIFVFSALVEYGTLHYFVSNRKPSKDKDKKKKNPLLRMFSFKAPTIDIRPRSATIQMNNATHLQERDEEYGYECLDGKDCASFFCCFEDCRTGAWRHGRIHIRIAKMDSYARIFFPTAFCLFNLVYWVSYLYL

Row | Molecule | effect on hNav1.1 opening / gating (in words) (hNav1.1; 100 μM) | effect on hNav1.1 persistent current (in words) (hNav1.1; 100 μM) | effect on hNav1.2 opening / tested gating parameters (in words) (hNav1.2) | effect on hNav1.3 opening / tested gating parameters (in words) (hNav1.3) | effect on hNav1.6 opening / tested gating parameters (in words) (hNav1.6; 100 μM, vs DMSO control) | hNav1.1 Inactivation (V1/2), steady-state inactivation (hNav1.1) [mV] | hNav1.1 Activation (V1/2) (hNav1.1) [mV] | other results
1 | CCc1c(C(N)=O)nnn1Cc1ccccc1 [Compound F, 1-(phenylmethyl)-1H-1,2,3-triazole-4-carboxamide-5-ethyl] | inhibits hNav1.1 opening | does not influence | not significant | not significant | not significant | – | – | effect on hNav1.1 steady-state inactivation (in words) (hNav1.1; 100 μM): does not influence; depolarizing shift in hNav1.1 channel activation voltage (hNav1.1; 100 μM): ~+12 mV
2 | 1-[(2,6-difluorophenyl)methyl]-1H-1,2,3-triazole-carboxymethyl-5-methyl [Compound L] | only slightly inhibits hNav1.1 opening | – | not significant | not significant | – | – | – | effect on hNav1.6 steady-state inactivation (in words) (hNav1.6; 100 μM): dramatically affect hNav1.6 steady-state inactivation
3 | COC(=O)c1nnn(Cc2c(F)cccc2F)c1C [Compound L, 1-[(2,6-difluorophenyl)methyl]-1H-1,2,3-triazole-carboxymethyl-5-methyl] | much smaller compared to compound B | – | – | – | – | – | – | shift of midpoint of hNav1.6 channel availability (steady-state inactivation) (hNav1.6; 100 μM, vs DMSO control): ~−20 mV
4 | NC(=O)c1nnn(Cc2cccc(F)c2)c1N [Compound A, 1-[(3-fluorophenyl)methyl]-1H-1,2,3-Triazole-4-carboxamide-5-amine] | clearly inhibit hNav1.1 opening | neither of these compounds influences | – | – | – | −50.5 ± 1.2 | −30.8 ± 1.0 | –
5 | NC(=O)c1nnn(Cc2ccc(F)cc2)c1N [Compound D, 1-[(4-fluorophenyl)methyl]-1H-1,2,3-Triazole-4-carboxamide-5-amine] | not significant | – | – | – | – | −49.8 ± 1.6 | −32.5 ± 2.3 | –
6 | Cc1c(C(N)=O)nnn1Cc1ccccc1 [Compound B, 1-[phenyl-methyl]-1H-1,2,3-Triazole-4-carboxamide-5-methyl] | more efficaciously when compared to rufinamide; also recorded: clearly inhibit hNav1.1 opening | do not affect persistent current | unaltered | unaltered | unaltered | −49.4 ± 0.3 | −27.4 ± 1.0 | effect on entry or voltage-dependence of hNav1.1 slow inactivation (in words) (hNav1.1): do not influence; depolarizing shift in hNav1.1 channel activation voltage (hNav1.1; 100 μM): ~+11 mV; Voltage-dependence of SI (V), V1/2 of hNav1.1 slow inactivation (hNav1.1; oocytes expressing hNav1.1, Boltzmann fit): −43.2 ± 1.3 mV; Entry into SI (T), time constant of entry into hNav1.1 slow inactivation (hNav1.1; oocytes expressing hNav1.1, single exponential fit): 5.5 ± 0.4 s; severity of seizures vs vehicle (modified Racine scale), 6 Hz [1]: dramatically less severe; also recorded: typically less severe; average latency to the MJ, flurothyl [2]: comparable; activation of the α1/β2/γ2 GABAA receptor (in words) (α1/β2/γ2 GABAA receptor): do not activate; also recorded: do not evoke inward GABAA-mediated currents; hNav1.2 Activation (V1/2) (hNav1.2): −23.6 ± 1.1 mV; hNav1.2 Inactivation (V1/2), steady-state inactivation (hNav1.2): −53.6 ± 1.2 mV; hNav1.3 Activation (V1/2) (hNav1.3): −25.8 ± 1.4 mV; hNav1.3 Inactivation (V1/2), steady-state inactivation (hNav1.3): −50.0 ± 0.8 mV; frequency of the behavioral seizures vs vehicle, picrotoxin ([3]; 75 mg/kg ip): no difference; average latency to forelimb clonus (FC), picrotoxin [3, 4]: no statistically significant differences; average latency to the first myoclonic jerk (MJ), picrotoxin [3, 4]: no statistically significant differences; hNav1.6 Activation (V1/2) (hNav1.6): −23.8 ± 1.9 mV; hNav1.6 Inactivation (V1/2), steady-state inactivation (hNav1.6): −62.6 ± 0.7 mV
7 | OCc1cn(Cc2cccc(F)c2)nn1 [Compound C, 1-[(3-fluorophenyl)methyl]-1H-1,2,3-Triazole-4-hydroxymethyl] | does not influence hNav1.1 gating; also recorded: no longer affects hNav1.1 opening | – | – | – | – | −49.2 ± 0.6 | −38.4 ± 1.3 | –
8 | NC(=O)c1cn(Cc2c(F)cccc2F)nn1 [Rufinamide, 1-[(2,6-difluorophenyl)methyl]-1H-1,2,3-Triazole-4-carboxamide, reference compound] | dramatic depolarizing shift; also recorded: inhibits hNav1.1 opening | do not affect persistent current | not inhibited | not inhibited | not inhibited; also recorded: not significant | −47.8 ± 1.6 | −30.6 ± 0.9 | solubility (Solubility of rufinamide; DMSO, organic solvent or mixture): ≤ 9000 µg/mL; solubility in water (Solubility of rufinamide; water): slightly soluble; effect on entry or voltage-dependence of hNav1.1 slow inactivation (in words) (hNav1.1): do not influence; activation of the α1/β2/γ2 GABAA receptor (in words) (α1/β2/γ2 GABAA receptor): do not activate; also recorded: do not evoke inward GABAA-mediated currents; hNav1.2 Activation (V1/2) (hNav1.2): −29.5 ± 1.2 mV; hNav1.2 Inactivation (V1/2), steady-state inactivation (hNav1.2): −57.7 ± 0.5 mV; hNav1.3 Activation (V1/2) (hNav1.3): −24.5 ± 2.4 mV; hNav1.3 Inactivation (V1/2), steady-state inactivation (hNav1.3): −52.6 ± 1.6 mV; hNav1.6 Activation (V1/2) (hNav1.6): −28.1 ± 0.8 mV; hNav1.6 Inactivation (V1/2), steady-state inactivation (hNav1.6): −60.0 ± 0.7 mV
